Series [1] concerns extracellular ROS production in PMA stimulated human neutrophils. Briefly: Extracellular chemiluminescence (isoluminol/HRP) of PMA stimulated neutrophils. The series is classed as cell-based. Particulars: for Effect on extracellular ROS production: 0.01–100 μmol/L, PMA stimulated; for EC50: Homo sapiens, PMA 0.05 μmol/L, 37°C, isoluminol-enhanced CL integrated over 1800 s, mean ± SEM, read-out: EC50, extracellular chemiluminescence (50% inhibition of control CL); for EC50 / IC50: Neutrophil; for IC50: PMA stimulated human neutrophils, read-out: IC50 of control extracellular chemiluminescence. As to the method: (§1) The effect of HHC or HHDC (0.01, 0.1, 1, 10, and 100 μmol/L) on extra- and intracellular ROS production was measured in unstimulated and PMA (0.05 μmol/L) stimulated neutrophils (5 × 10^5/sample) by isoluminol-/luminol-enhanced chemiluminescence (CL). Extracellular CL was determined in the system containing isoluminol (5 μmol/L) and HRP (8 U/mL). Intracellular CL was measured with luminol (5 μmol/L) in the presence of the extracellular scavengers superoxide dismutase (100 U/mL) and catalase (2 000 U/mL). […] Data were based on integral values of CL over 1800 s, (RLU × s; RLU: relative light units).

For the next series, the target named is T1, PKCδ (Homo sapiens, UniProt Q05655).
T1 construct: endogenous in cells; host or cells: isolated human neutrophils
T1 sequence (Q05655 whole entry): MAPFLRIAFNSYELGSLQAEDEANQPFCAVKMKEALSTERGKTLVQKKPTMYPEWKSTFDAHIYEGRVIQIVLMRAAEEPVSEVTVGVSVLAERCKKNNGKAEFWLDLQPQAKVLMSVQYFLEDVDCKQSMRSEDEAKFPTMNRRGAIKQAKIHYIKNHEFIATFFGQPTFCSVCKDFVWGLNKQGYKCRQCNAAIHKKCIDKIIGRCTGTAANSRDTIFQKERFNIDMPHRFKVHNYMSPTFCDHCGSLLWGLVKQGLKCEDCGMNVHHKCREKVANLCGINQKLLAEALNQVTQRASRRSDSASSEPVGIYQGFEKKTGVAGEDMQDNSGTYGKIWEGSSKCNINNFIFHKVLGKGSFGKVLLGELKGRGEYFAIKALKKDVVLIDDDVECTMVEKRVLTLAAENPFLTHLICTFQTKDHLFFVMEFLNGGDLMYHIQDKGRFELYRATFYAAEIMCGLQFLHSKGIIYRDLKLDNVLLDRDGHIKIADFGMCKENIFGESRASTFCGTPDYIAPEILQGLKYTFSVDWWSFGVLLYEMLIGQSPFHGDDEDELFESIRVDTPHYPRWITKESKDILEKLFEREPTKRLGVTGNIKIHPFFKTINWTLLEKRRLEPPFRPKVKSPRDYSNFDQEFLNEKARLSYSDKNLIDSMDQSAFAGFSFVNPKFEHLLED
Briefly: Western blot, phosphorylation of PKCδ (Thr505) in PMA stimulated neutrophils. The conditions noted are these: 10 and 100 μmol/L, PMA 0.15 μmol/L. The series is classed as cell-based. Here is the method: (§2) Phosphorylation of PKC isoenzymes α, βII, and δ, as well as NADPH oxidase subunit p40^phox, was detected using the method described by Jančinová et al..
(§3) The suspension of isolated neutrophils (100 μL) containing 5 × 10^6 cells was preincubated at 37°C for 60 seconds with different concentrations of HHC or HHDC (10, 100 μmol/L) prior to addition of PMA (0.15 μmol/L). Incubation with PMA (5 min) was stopped by using a solubilisation buffer (20 mmol/L Tris-HCl, 5 mmol/L EDTA, 1% Triton, 10% glycerol, 10 mmol/L NaF, 1 mmol/L sodium orthovanadate, 208 μmol/L AEBF, 0.17 μmol/L aprotinin, 8 μmol/L bestatin, 2.8 μmol/L E-64, 4 μmol/L leupeptin, and pH 7.4). The suspension was sonicated at 4°C for […] and centrifuged at 14 000 ×g at 4°C for 5 min to remove unbroken cells. […] From the two strips taken, one was detected for PKCα, βII (area between 60 and 100 kD) and the second for detection of β-actin (30–60 kD), which represented the internal control. […]
(§4) NADPH oxidase subunit p40^phox and PKC isoenzyme δ were detected in the same blots after their washing and incubation with 10x diluted stripping buffer (Reblot Plus Mild Solution, Millipore, Temecula, CA, USA) for 15 min and washed overnight in diluent buffer (1% bovine serum albumin in Tris buffered saline). […] Autoradiogram bands were quantified using the Image J programme. […]
Background: In western blotting, separated proteins are transferred to a membrane and probed.

Details of series [2]: method as in PMID 21187835. Particulars: cited from earlier work.
In the next series the test system is PKC. Briefly: PKC activity assay (ELISA kit) in cytosol of PMA stimulated neutrophils. The series is classed as cell-based, human. The conditions noted are these: for PKC activity (percentage of stimulated PMA control): 30 min incubation, PMA 0.15 μmol/L 3 min, mean ± SEM, n = 8. As to the method:
PKC activity in the cytosol was detected by the modified method of Varga et al.. Isolated human neutrophils (5 × 10^5/mL) were incubated 30 min with HHC (1, 10, and 100 μmol/L) or HHDC (1, 10, and 100 μmol/L) at 37°C. Neutrophils were then stimulated with PMA (0.15 μmol/L, final concentration) at 37°C for 3 min. The reaction was stopped by addition of 10 vol of ice-cold PBS. After centrifugation (500 ×g, 4°C, 10 min) the cells were resuspended in sample buffer (20 mmol/L TRIS-HCl, 5 mmol/L EDTA, 1% Triton, 10% glycerol, and protease inhibitor cocktail), sonicated on ice, and centrifuged (14 000 ×g, 5 min, 4°C). The cytosolic fractions were transferred to a prechilled 1.5 mL microcentrifuge tube and stored at –70°C. Protein content of cytosol fraction was measured using Bradford Dye Reagent Detection Kit (Bio-Rad, USA). PKC activity was measured with a Nonradioactive Protein Kinase Assay kit (Assay Designs, Ann Arbor, MI, USA), which is based on a solid-phase enzyme-linked immunoabsorbent assay (ELISA), utilising a specific synthetic peptide as substrate for PKC and a polyclonal antibody recognizing the phosphorylated form of the substrate. The assay is developed with tetramethylbenzidine substrate and a colour develops in proportion to PKC phosphotransferase activity. The colour development was stopped with acid stop solution and the intensity of the colour was measured in a microplate reader at 450 nm. The data were expressed as relative kinase activity per 1 mg of protein.
A general note: In an ELISA, binding on a coated surface is turned into a signal by an enzyme label.

The subject of the next series is human neutrophils. Briefly: Cytotoxicity by ATP liberation (luciferin-luciferase chemiluminescence). The conditions noted are these: 1, 10, and 100 μmol/L. The series is classed as cell-based. As to the method: The cytotoxic effect of HHC and HHDC was evaluated by means of ATP liberation by the luciferin-luciferase chemiluminescence. The neutrophil suspension (30 μL; 30 000 cells/sample) and 20 μL of Tyrode's solution were incubated with 50 μL of HHC or HHDC (1–100 μmol/L) for 15 min at 37°C. Ten microliters of a mixture of luciferin (1.6 μg/sample) and luciferase (45 000 U/sample) was added, and the chemiluminescence was recorded for 60 s. In each experiment, the chemiluminescence of ATP standards (1–500 nmol/L) was measured and the concentrations of ATP in samples were calculated from the calibration curve. The total ATP content was assessed immediately after sonication of neutrophils for 10 s.

The subject of series [3] is NADPH oxidase subunit p40^phox. Briefly: Western blot, phosphorylation of NADPH oxidase subunit p40phox (T154) in PMA stimulated neutrophils. The series is classed as cell-based, human. Particulars: 10 and 100 μmol/L, PMA 0.15 μmol/L. Here is the method:
as §2, §3, §4

The test system of series [4] is intracellular ROS production in PMA stimulated human neutrophils. Briefly: Intracellular chemiluminescence (luminol with superoxide dismutase and catalase) of PMA stimulated neutrophils. The series is classed as cell-based. The conditions noted are these: for Effect on intracellular ROS production: 0.01–100 μmol/L, PMA stimulated; for EC50: Homo sapiens, PMA 0.05 μmol/L, 37°C, luminol-enhanced CL integrated over 1800 s, mean ± SEM, read-out: EC50, intracellular chemiluminescence (50% inhibition of control CL). As to the method: as §1

A short description of series [5]: Chemiluminescence assay in cell-free system. The series is classed as biochemical. Particulars: luminol, hydrogen peroxide; for EC50: HRP, 37°C, CL over 10 minutes, mean ± SEM, read-out: EC50, cell free chemiluminescence (50% inhibition of control CL). As to the method: In the cell-free system, luminol, horseradish peroxidase, and hydrogen peroxide were used for chemiluminescence generation. The 200 μL samples consisted of 50 μL aliquots: HRP (2 U/mL), luminol (10 μmol/L), HHC, or HHDC solutions in the concentrations of 1, 10, or 100 μmnol/L. The reaction was initiated by adding hydrogen peroxide at the final concentration of 100 μmol/L. The chemiluminescence responses were measured for 10 minutes at 37°C in a microplate luminometer Immunotech LM-01T (Czech Republic).

Molecules are shown by their SMILES.

Broadly, the EC50 is the concentration at which the effect is half-maximal. What is called IC50 is the concentration needed to halve the response being measured.

With `O=C1Oc2cc(O)ccc2CC1c1ccc(O)cc1` (stereo not shown) [HHDC, 7-Hydroxy-3-(4′-hydroxyphenyl)-3,4-dihydrocoumarin], in series [1], the “Effect on extracellular ROS production” value is given as “decreased significantly extracellular ROS production”. For the same molecule, the EC50 is 1010 ± 130 nM in series [1], over 100000 nM in series [4] (Neutrophil) and 2470 ± 40 nM in series [5]. Also, the half-inhibitory concentration (IC50) was found to be 1010 ± 130 nM in series [1] and 2470 ± 40 nM in series [5] (horseradish peroxidase, unit inferred, read-out: IC50, chemiluminescence generated by cell-free system). Further, on PKCδ, the “Effect on phosphorylation of PKCδ” value is on record as “did not affect phosphorylation of PKCδ”. The “Partition coefficient, compared to that of HHC” value in series [2] is recorded as “lower values of the partition coefficient”. Further, the “Effect on PKC activity” value with PKC (1, 10, and 100 μmol/L, PMA stimulated) is “did not significantly influence PKC activity”. Also, in the series on human neutrophils, the “Effect on spontaneous ATP liberation (cytotoxicity)” value is “did not increase spontaneous ATP liberation”. In addition, in series [3], the “Effect on phosphorylation of p40phox subunit” value is “failed to influence it”. The “Effect on intracellular ROS production” value in series [4] is reported as “slightly effective only in the highest concentration tested”.
As to `O=c1oc2cc(O)ccc2cc1-c1ccc(O)cc1` [HHC, 7-Hydroxy-3-(4′-hydroxyphenyl) coumarin], the “Effect on extracellular ROS production” value in series [1] is listed as “decreased significantly extracellular ROS production”. Also, the results for the concentration for a half-maximal effect (EC50) in series [1], in series [4] (Neutrophil) and in series [5] were 1040 ± 200 nM, 5240 ± 570 nM and 590 ± 10 nM, respectively. In addition, the concentration for half-maximal inhibition (IC50) in series [1] amounted to 1040 ± 200 nM; in series [4] (Neutrophil, PMA stimulated human neutrophils), 5240 ± 570 nM. Further, the “Effect on phosphorylation of PKCδ” value on PKCδ is “did not affect phosphorylation of PKCδ”. The “PKC activity (percentage of stimulated PMA control)” value in the series with PKC (1 μmol/L) amounted to 87.7 ± 4.2%; in the series on PKC (10 μmol/L) it was 74.8 ± 6.3%; in the series with PKC (100 μmol/L) it was 46.3 ± 1.8%. For the same molecule, in the series on human neutrophils, the “Effect on spontaneous ATP liberation (cytotoxicity)” value is “did not increase spontaneous ATP liberation”. In series [3], the “Effect on phosphorylation of p40phox subunit” value is recorded as “failed to influence it”. Further, the “Effect on intracellular ROS production” value in series [4] is recorded as “decreased significantly intracellular ROS production”.

The values above are taken from article PMC3855971, “Study of Possible Mechanisms Involved in the Inhibitory Effects of Coumarin Derivatives on Neutrophil Activity” (Oxidative Medicine and Cellular Longevity, 2013).
